Earlier results, collected in patent US20040059096A1, “Anti-ciguatoxin monoclonal antibody” (priority 2001, published 2004).

Details: species and route not given

Compound: C[C@@H]1C[C@@H]2O[C@@H]3[C@@H](C)[C@H](O)[C@@H]4OC5(C[C@H](O)CO5)[C@@H](C)[C@H](C)[C@H]4O[C@H]3C[C@H]2O[C@H]2C[C@H]3O[C@@H]4/C=C\C[C@H]5O[C@H]6C=C[C@H]7O[C@H]8[C@H](O)[C@H]9O[C@@H](/C=C/[C@H](O)CO)C=CC[C@@H]9O[C@@H]8C[C@@H]7O[C@@H]6C=C[C@@H]5O[C@@H]4C[C@@H](O)[C@]3(C)O[C@@H]2C1 (stereo partly shown) [CTX]
- LD50: 0.35 µg/kg
